The text below walks through data of PMC6996867 (Journal of Medicinal Chemistry, 2010).

By pKa is commonly meant the pH at which an ionisable group is half protonated. Low readings indicate a group that gives up its proton readily, high ones a group that holds its proton tightly. In general, half-life refers to the time in which the quantity being followed falls by half. Low readings indicate fast loss, high ones slow loss.

A short description of one data set: pKa. Type of data set: physicochemical.
The subject of data set [1] is P. berghei strain GFP ANKA. Description: In vivo antimalarial activity, P. berghei infected malaria mouse model. Also on record: species or system Plasmodium berghei (female NMRI mice).
The nature of data set [2]: In vivo pharmacokinetic studies in mice.

`C[C@H]1Cc2c([nH]c3cc(F)c(F)cc23)[C@@]2(N1)C(=O)Nc1ccc(Cl)cc12` [Compound 20a, (1R,3S)-5′-Chloro-6,7-difluoro-3-methyl-2,3,4,9-tetrahydrospiro[β-carboline-1,3′-indol]-2′(1′H)-one] returned a pKa in the data set “pKa” (pKa1, first pKa) of 4.9. Further, in data set [1] (3 × 30 mg/kg oral doses), the “full cure (no parasites at day 30)” value is recorded as “four out of five mice”. Further, the “toxicity or behavioral changes after drug administration” value in data set [1] (treated mice, any dosing regimen) is on record as “neither toxicity nor behavioral changes”. Further, the “total systemic clearance relative to hepatic blood flow” value in data set [2] (mice, intravenous administration) was ~10 % hepatic blood flow. Moreover, in data set [2] (mice, oral, 20a vs 9a), the “exposure (AUC∞) greater than 9a” value came out at 18 fold. Moreover, in data set [2] (mouse, plasma), the half-life is 3 h.

Molecule `C[C@H]1CCc2c([nH]c3ccccc23)[C@@]2(N1)C(=O)Nc1ccc(Br)cc12` [Compound 1a, (1R,3S)-5′-Bromo-3-methyl-3,4,5,10-tetrahydro-2H-spiro[azepino[3,4-b]indole-1,3′-indol]-2′(1′H)-one] came in with a pKa in “pKa” (pKa1, first pKa) of 5.2.

For the molecule `C[C@H]1Cc2c([nH]c3ccc(F)cc23)[C@@]2(N1)C(=O)Nc1ccc(Cl)cc12` [Compound 17a, (1R,3S)-5′-Chloro-6-fluoro-3-methyl-2,3,4,9-tetrahydrospiro[β-carboline-1,3′-indol]-2′(1′H)-one], in the data set “pKa” (pKa1, first pKa), the pKa was 4.8.

On to `C[C@H]1Cc2c([nH]c3cc(Cl)ccc23)[C@@]2(N1)C(=O)Nc1ccc(Cl)cc12` [Compound 18a, (1R,3S)-5′,7-Dichloro-3-methyl-2,3,4,9-tetrahydrospiro[β-carboline-1,3′-indol]-2′(1′H)-one], for which the pKa was found to be 5.2 in “pKa” (pKa1, first pKa) and 10.6 in “pKa” (pKa2, second pKa).
